In patent US8703800B2, “Nitrate and diazeniumdiolate derivatives of pioglitazone” (Cardiolynx AG, priority 2010, dated 2014):
Where two headings read alike, the source gives them in different places.

Legend:
[1] = tested on: rat aortic ring segments preconstricted with phenylephrine; experiment: Isometric tension studies: vasodilation of preconstricted rat aortic ring segments; type: cell-based; settings: for EC50: read-out: pD2-value (vasodilatory potency) (converted)
Description: Vasodilation of rat aortic ring segments preconstricted with phenylephrine, Example 2, Table 1. X-axis: relaxation in %; y-axis: log concentration (log M).
For in vitro characterization of the new pioglitazone nitrate (1) of Example 1, vasodilatory potency was determined by isometric tension studies. According to a published procedure rat aortic ring segments were preconstricted by the alpha-receptor-agonist phenylephrine [Daiber, A. et al., Mol Pharmacol 66 (2004), 1372-1382; Wendt, M. et al., Free Radic Biol Med 39 (2005), 381-391; Munzel, T. et al., J Clin Invest 95 (1995), 187-194]. After reaching a stable preconstriction of vascular tone, the vessels were dose-dependently vasodilated until the final tone at the highest added concentration of the vasodilator was reached. The vasodilators were added at half-logarithmic concentrations starting at 10^−8 M (=10 nanomolar). Vasodilatory potency was compared creating a concentration-relaxation curve. The data are based on experiments with aorta from at least 6 rats on 3 different days.

[2] = tested on: isolated rat cardiac mitochondria; experiment: ROS/RONS formation in isolated mitochondria (L-012 chemiluminescence); type: biochemical
Text: Reactive oxygen and nitrogen species formation in response to in vitro challenge of isolated rat cardiac mitochondria based on reaction of the chemiluminescence dye L-012 (a luminal analogue), Example 3, Table 2. X-axis: compounds tested with concentration [μM]; y-axis: photons n per 1 sec of emission of chemiluminescence light (ECL).
Vascular oxidative stress is a well-known side effect of nitrate tolerance (an adverse condition that develops under chronic nitrate therapy). Therefore, the induction of reactive oxygen and nitrogen species formation in response to in vitro challenges with the test compounds was assessed in isolated mitochondria according to a published procedure [Daiber, A. et al., Mol Pharmacol 66 (2004), 1372-1382; Daiber, A. et al., Biochem Biophys Res Commun 338 (2005), 1865-1874; Daiber, A. et al., Mol Pharmacol 68 (2005), 579-588]. The assay is based on the reaction of the chemiluminescence dye L-012 (a luminol analogue) with reactive oxygen and nitrogen species (RONS, e.g. superoxide anion radicals, peroxynitrite anions or nitrogen dioxide radicals) and subsequent emission of chemiluminescence light (ECL). The signal is counted in photons/time (=counts/30s). The data are based on experiments with cardiac mitochondria from at least 6 rats on 3 different days.

[3] = rat aortic rings preconstricted with phenylephrine
[4] = rat aortic rings preconstricted with phenylephrine, concentration-relaxation curve

EC50 [1, 4] [µM] | ROS formation, Mean ([2]; rat, 10 μM) [counts/1 s] | ROS formation, Mean ([2]; rat, 100 μM) [counts/1 s] | ROS formation, Mean ([2]; rat, 1000 μM) [counts/1 s] | SMILES | Isometric tension, relaxation (Mean ± SEM) ([1]; Log [M] −3.5) [%] | Isometric tension, relaxation (Mean ± SEM) ([1]; Log [M] −4) [%] | Isometric tension, relaxation (Mean ± SEM) ([1]; Log [M] −4.5) [%] | Isometric tension, relaxation (Mean ± SEM) ([1]; Log [M] −5) [%] | Isometric tension, relaxation (Mean ± SEM) ([1]; Log [M] −5.5) [%] | Isometric tension, relaxation (Mean ± SEM) ([1]; Log [M] −6) [%] | Isometric tension, relaxation (Mean ± SEM) ([1]; Log [M] −6.5) [%] | Isometric tension, relaxation (Mean ± SEM) ([1]; Log [M] −7) [%] | Isometric tension, relaxation (Mean ± SEM) ([1]; Log [M] −7.5) [%] | Isometric tension, relaxation (Mean ± SEM) ([1]; Log [M] −8) [%] | Vasodilatory potency, result in words [1, 3] | ROS formation, Mean ([2]; Conc. 10 μM, basal 627.7) [counts/1 s] | ROS formation, Mean ([2]; Conc. 100 μM, basal 627.7) [counts/1 s] | ROS formation, Mean ([2]; Conc. 1000 μM, basal 627.7) [counts/1 s] | also measured
~1 | 697.3 | 609.8 | 889.2 | CCc1ccc(CCOc2ccc(CC3SC(=O)N(COC(=O)NCCO[N+](=O)[O-])C3=O)cc2)nc1 (stereo not drawn) [compound 1] | 98.13 ± 5.98 | 87.22 ± 3.34 | 79.07 ± 3.82 | 70.11 ± 3.49 | 57.49 ± 3.15 | 43.34 ± 2.88 | 27.72 ± 2.57 | 12.82 ± 1.68 | 2.65 ± 1.49 | 0 | even more active than isosorbide dinitrate | – | – | – | Effect on RONS formation, result in words [2]: does not have a pronounced effect on RONS formation
– | – | – | – | O=[N+]([O-])OCC(CO[N+](=O)[O-])O[N+](=O)[O-] [Glycerol trinitrate] | – | – | – | – | – | – | – | – | – | – | – | 597.7 | 898.5 | 2762 | –
~316 | 563 | 874.5 | 801.7 | CCc1ccc(CCOc2ccc(CC3SC(=O)NC3=O)cc2)nc1 (racemic) [Pioglitazone] | 55.47 ± 5.98 | 22.40 ± 3.34 | 11.19 ± 3.82 | 8.30 ± 3.49 | 5.63 ± 3.15 | 5.40 ± 2.88 | 4.14 ± 2.57 | 3.42 ± 1.68 | 2.92 ± 1.49 | 0 | weak relaxing effects | – | – | – | –
– | – | – | – | O=[N+]([O-])O[C@@H]1CO[C@H]2[C@@H]1OC[C@@H]2O [ISMN, Isosorbide-5-mononitrate] | 64.17 ± 4.11 | 43.46 ± 3.28 | 16.76 ± 2.29 | 9.29 ± 2.23 | 5.47 ± 1.95 | 3.73 ± 1.39 | 3.86 ± 1.04 | 0 | – | – | – | – | – | – | Isometric tension, relaxation (Mean ± SEM) ([1]; Log [M] −2): 98.77 ± 0.75%; Isometric tension, relaxation (Mean ± SEM) ([1]; Log [M] −2.5): 94.91 ± 1.28%; Isometric tension, relaxation (Mean ± SEM) ([1]; Log [M] −3): 82.81 ± 3.45%
– | – | – | – | O=C(NCCO[N+](=O)[O-])OCCl [Linker 2, chloromethyl N-2-nitrooxyethylcarbamate] | 96.18 ± 2.20 | 91.00 ± 5.36 | 86.66 ± 6.04 | 80.97 ± 6.47 | 68.37 ± 6.89 | 51.19 ± 6.35 | 30.73 ± 5.12 | 16.85 ± 3.29 | 8.25 ± 2.09 | 0 | – | 622.5 | 674.7 | 1395.8 | pD2-value (vasodilatory potency) [1, 4]: approximately 6; Effect on RONS formation, result in words ([2]; in vitro challenge of isolated rat cardiac mitochondria): has also some increasing effect
